Assay results: paper PMC10135569, “Does Enhanced Structural Maturity of hiPSC-Cardiomyocytes Better for the Detection of Drug-Induced Cardiotoxicity?” (Biomolecules, 2023)

Tests used:
[1] = test system: hiPSC-CMs (iCell2 Cardiomyocytes) 2D monolayers; assay: Membrane potential (action potential) recordings with FluoVolt voltage-sensitive dye on the CellOPTIQ platform; assay type: cell-based, human; conditions: for activity at 0.03 µM / activity at 0.1 µM / activity at 0.3 µM / activity at 1 µM: Homo sapiens, Cardiomyocyte, 0.5 h, 30 min, delta over DMSO 0.1%
Experimental: (§1) Cardiomyocytes (FUJIFILM Cellular Dynamics, Madison, WI, USA) were kept at −190 °C and prepared for culture as per the manufacturer’s instructions.
(§2) Standard fibronectin vs. Matrix Plus well coating: The cells were cultured using two different coatings in a humidified incubator at 37 °C with 5% CO2. First, 96-well glass-bottomed plates (MatTek, Ashland, MA) were coated with fibronectin ([…] in PBS supplemented with Ca^2+ and Mg^2+; Sigma, St. Louis, MO, USA) (defining FM). Second, CELLvo^TM Matrix Plus (StemBioSys, San Antonio, TX, USA), which were pre-coated on 96 well glass bottom plates and kept at 4 °C. On the day of plating, CELLvo^TM Matrix Plus plates were transferred to room temperature, rehydrated with phosphate buffer saline (PBS), incubated for 1 h at 37 °C, and washed 2× with PBS. Cells were introduced at a density of 50,000 cells/well to allow the formation of a confluent monolayer in each well (defined as MM). The maintenance protocols followed the manufacturer’s instructions and used the iCell^2 Cardiomyocytes Maintenance media for media changes every 2 days. Experiments were performed between days 5 and 6, as recommended by the manufacturers. Before beginning an experiment, cells were washed in serum-free media (SF media) (Fluorobrite DMEM, Gibco, Thermo Fisher Scientific, Horsham, UK).
(§3) The drug powders were dissolved in DMSO, and four stock concentrations at 1000× the final target concentration were prepared in DMSO. For the experiment, an intermediate concentration 2× the target solution was prepared in SF media. The addition of drugs to the cells was accomplished by replacing 50% of the well volume with the intermediate 2× solution. The same procedure was done for vehicle control using DMSO. The experimental number n = 8/concentration/testing compound in the FM or MM condition, and n = 36 for each positive or negative control in the FM or MM condition.
Cultures of hiPSC-CMs (5–6 days post-plating) were treated with FluoVolt dye (1:1000, Invitrogen, Cat# F10488) in SF media and incubated for 20 min at 37 °C with 5% CO2 and 80% humidity. Multi-well plates were placed in the environmentally controlled stage incubator (37 °C, 5% CO2, water-saturated air atmosphere) (Okolab Inc. Burlingame, CA) of the CellOPTIQ® platform (Clyde Biosciences Ltd., Glasgow, Scotland). The FluoVolt signal was recorded from a 0.2 mm × 0.2 mm area using a 40× (numerical aperture: NA 0.6) Excitation wavelength was 470 ± 10 nm using a light-emitting diode (LED), and emitted light was collected by two photomultipliers (PMTs) at 510–560 nm (channel 1) and 590–650 nm (channel 2), respectively. LED, PMT, and associated power supplies and amplifiers were supplied by Cairn Research Ltd. (Kent, UK) and digitized at 10 kHz and stored on a computer hard drive. In the case of FluoVolt-based action potential recordings, the short wavelength (channel 1, […]) was analyzed for action potential features.
(§4) The dye FluoVolt is loaded into the surface membrane (outer leaflet), and the dye remains within the membrane for many dots, allowing intermittent voltage measurements over the experimental period. In this study, measurements were restricted to within 30 mins of application of the drug. The measurements were made on the same area before/after drug/DMSO addition. […] Baseline spontaneous electrical activity and the associated contractility signal were recorded by capturing 10 s segments of fluorescent signal and video for 2D plates and 15 s for organoids from each well prior to compound addition. Drugs were tested at four concentrations in n = 8 independent replicates (i.e., 8 wells from a single plating) at each concentration. A vehicle control was included for each drug. A 10 s or 15 s recording was then taken 30 min after exposure to the drug or vehicle with only one concentration applied/well.

[2] = test system: hiPSC-CMs (iCell2 Cardiomyocytes) 2D monolayers; assay: Contractility measurements using video imaging (ContractilityTool / MUSCLEMOTION); assay type: cell-based, human; conditions: Homo sapiens, Cardiomyocyte, 0.5 h, 30 min, delta over DMSO 0.1%
Experimental: as §1, §2, §3
as §4, with “applied/well. Offline analysis was performed using proprietary software (CellOPTIQ®).” for “applied/well.”
Short periods (10 s or 15 s) of video were analyzed using the ContractilityTool application (developed by F.L. Burton), which is an implementation of the MUSCLEMOTION algorithm.

[3] = FM monolayer, read-out: APD30 (%DD)
[4] = FM monolayer, read-out: APD90 (%DD)
[5] = FM monolayer, read-out: CL (%DD)
[6] = FM monolayer, read-out: Trise (%DD)
[7] = MM monolayer, read-out: APD30 (%DD)
[8] = MM monolayer, read-out: APD90 (%DD)
[9] = MM monolayer, read-out: CL (%DD)
[10] = MM monolayer, read-out: Trise (%DD)
[11] = FM monolayer, read-out: CtAmp (%DD)
[12] = FM monolayer, read-out: CtD50 (%DD)
[13] = MM monolayer, read-out: CtAmp (%DD)
[14] = MM monolayer, read-out: CtD50 (%DD)

## C[N+](C)(C)CCOC(N)=O [Carbachol]
[1]; [3]
  activity at 0.03 µM: 97 ± 2.3%
  activity at 0.1 µM: 104 ± 2.6%
  activity at 0.3 µM: 102 ± 2.9%
  activity at 1 µM: 103 ± 1.6%
[1]; [4]
  activity at 0.03 µM: 99 ± 1.4%
  activity at 0.1 µM: 100 ± 1.2%
  activity at 0.3 µM: 103 ± 1%
  activity at 1 µM: 110 ± 1.1%
[1]; [5]
  activity at 0.03 µM: 99 ± 2.6%
  activity at 0.1 µM: 105 ± 0.6%
  activity at 0.3 µM: 109 ± 1%
  activity at 1 µM: 114 ± 0.5%
[1]; [6]
  activity at 0.03 µM: 104 ± 11.8%
  activity at 0.1 µM: 125 ± 18.5%
  activity at 0.3 µM: 118 ± 17.5%
  activity at 1 µM: 95 ± 17.7%
[1]; [7]
  activity at 0.03 µM: 105 ± 2.2%
  activity at 0.1 µM: 106 ± 2.4%
  activity at 0.3 µM: 111 ± 1.9%
  activity at 1 µM: 120 ± 2.3%
[1]; [8]
  activity at 0.03 µM: 103 ± 1.8%
  activity at 0.1 µM: 107 ± 1.1%
  activity at 0.3 µM: 111 ± 1.1%
  activity at 1 µM: 118 ± 1%
[1]; [9]
  activity at 0.03 µM: 106 ± 0.3%
  activity at 0.1 µM: 115 ± 0.6%
  activity at 0.3 µM: 122 ± 0.9%
  activity at 1 µM: 131 ± 0.7%
[1]; [10]
  activity at 0.03 µM: 186 ± 29%
  activity at 0.1 µM: 144 ± 20.7%
  activity at 0.3 µM: 143 ± 22.1%
  activity at 1 µM: 143 ± 17.8%
[1]; both FM and MM monolayers, concentration not given
  effect on cycle length (in words): concentration-dependent increase
[2]; [11]
  activity at 0.03 µM: 94 ± 15.9%
  activity at 0.1 µM: 85 ± 10.4%
  activity at 0.3 µM: 102 ± 21.3%
  activity at 1 µM: 109 ± 13.8%
[2]; [12]
  activity at 0.03 µM: 104 ± 2.1%
  activity at 0.1 µM: 103 ± 2%
  activity at 0.3 µM: 108 ± 2.1%
  activity at 1 µM: 107 ± 3.7%
[2]; [13]
  activity at 0.03 µM: 86 ± 6.4%
  activity at 0.1 µM: 135 ± 12.9%
  activity at 0.3 µM: 118 ± 12.9%
  activity at 1 µM: 114 ± 18.4%
[2]; [14]
  activity at 0.03 µM: 98 ± 1.5%
  activity at 0.1 µM: 102 ± 1.8%
  activity at 0.3 µM: 111 ± 2.1%
  activity at 1 µM: 118 ± 1.5%
